# From patent US20240216354A1, “IMMUNOMODULATORY IMIDE DRUGS AS ZETA-CHAIN-ASSOCIATED PROTEIN KINASE 70 (ZAP70) AGONISTS AND USES THEREOF” (Dana-Farber Cancer Institute, Inc., priority 2019, published 2024)
# Tests used:
# Format in all cases: cell-based
# U266 cells [1] = experiment: NK-92 NK cell activity against calcein-AM-stained U266 cells; details: NK-92 cells, 48 h; Pom 0.5 and 1 μM; CC-220 0.1 and 1 μM, E/T 2.5/1
# Protocol: (A) NK-92 cells were cultured with Pom (0.5 and 1 μM) for 24 h. Whole cell lysates were subjected to immunoblotting using indicated Abs. (B) NK-92 cells were cultured with Pom (0.5 and 1 μM) for 48 h. The cells were subsequently incubated with calcein-AM-stained U266 cells for 4 h at the indicated effector/target (E/T) ratios. Percent specific lysis was calculated as described previously. (C) NK-92 cells were cultured with Pom (0.03-3 μM) for 72 h. Cell growth was assessed by MTT assay. (D) NK-92 cells were transfected with scrambled (Sc) or Zap-70 siRNA (Zap70si). After 72 h incubation, cell viability was measured by trypan-blue dye exclusion. For B, C, and D, data are representative of at least two independent experiments, and values are expressed in mean±SD.
# (A) NK-92 cells were cultured with Len (1 μM), Pom (0.01, 0.1, 1 μM) or CC-220 (0.01, 0.1, 1 μM) for 24 h. Whole cell lysates were subjected to immunoblotting using indicated Abs. (B) NK-92 cells were cultured with Pom (0.1 and 1 μM) or CC-220 ([…]) for 48 h. NK cell activity was measured by incubation with calcein AM-labeled U266 cells for 4 h at E/T ratio of 2.5/1. Percent specific lysis was calculated as previously described. Data are representative of three independent experiments, and values are expressed in mean±SD. *: p<0.01.
# U266 cells [2] = experiment: KHYG-1 NK cell cytotoxicity against calcein-AM-labeled U266 cells; details: KHYG-1 cells, pomalidomide 0.25-1 μM 24 h, then 4 h with U266 at indicated E/T ratios
# Protocol: KHYG-1 cells were cultured with pomalidomide (0.25-1 μM) for 24 h. (A) Whole cell lysates were subjected to immunoblotting using indicated Abs. (B) KHYG-1 cells were incubated with calcein-AM-stained U266 cells for 4 h at the indicated effector/target (E/T) ratios. Percent specific lysis was calculated as described previously. (C) KHYG-1 cells were transfected with Scsi or Zap-70si, and then cultured with pomalidomide (0.25 μM) for 72 h in the absence of IL-2. Viable cell number was determined, and cells were then incubated with calcein AM-labeled U266 target cells for 4 h at indicated effector/target (E/T) ratios. Percent specific lysis was calculated as described previously. […] Cell growth was assessed by MTT assay. […] Percent specific lysis was calculated as previously described.
# (A) KHYG-1 cells were transfected with Scsi or CRBNsi. […] Cells were counted and incubated with calcein AM-labeled U266 for 4 h at indicated effector/target (E/T) ratios.
# (A, B) KHYG-1 cells were transfected with scrambled (Sc) or Zap-70 siRNAs, and then cultured for 72 h with lenalidomide (0.5 μM), in the absence of IL-2 (A) The viable cell number was measured by trypan-blue dye exclusion. […] Percent specific lysis was calculated as described previously. *: p<0.01 compared with Scsi.
# KHYG-1 cells were transfected with scrambled (Sc) or IKZF3 siRNAs. […] Percent specific lysis was calculated as previously described. […]
# Zap-70 = molecular target: T1, Zap-70 (Homo sapiens, UniProt P43403); experiment: Immunoblotting of p-Zap-70 in KHYG-1 NK cell line; details: KHYG-1 cells, pomalidomide 0.25-1 μM, 24 h
# T1 sequence (P43403 1-619): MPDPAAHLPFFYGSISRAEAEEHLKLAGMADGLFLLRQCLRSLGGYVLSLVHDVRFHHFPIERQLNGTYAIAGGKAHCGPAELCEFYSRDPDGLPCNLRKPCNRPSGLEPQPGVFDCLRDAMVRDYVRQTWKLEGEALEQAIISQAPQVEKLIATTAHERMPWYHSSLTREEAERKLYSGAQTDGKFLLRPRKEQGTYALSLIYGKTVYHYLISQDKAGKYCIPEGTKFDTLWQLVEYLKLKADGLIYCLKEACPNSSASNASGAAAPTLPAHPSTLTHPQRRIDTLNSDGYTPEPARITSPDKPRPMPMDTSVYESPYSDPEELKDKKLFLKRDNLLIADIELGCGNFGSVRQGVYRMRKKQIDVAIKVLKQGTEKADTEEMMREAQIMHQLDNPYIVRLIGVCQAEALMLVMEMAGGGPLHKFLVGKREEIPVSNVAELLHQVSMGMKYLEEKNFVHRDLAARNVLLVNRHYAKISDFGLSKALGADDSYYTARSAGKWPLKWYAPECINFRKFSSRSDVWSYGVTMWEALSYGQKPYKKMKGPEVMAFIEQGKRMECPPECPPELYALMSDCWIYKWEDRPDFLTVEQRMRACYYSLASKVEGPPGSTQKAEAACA
# Protocol: KHYG-1 cells were cultured with pomalidomide (0.25-1 μM) for 24 h. (A) Whole cell lysates were subjected to immunoblotting using indicated Abs. (B) KHYG-1 cells were incubated with calcein-AM-stained U266 cells for 4 h at the indicated effector/target (E/T) ratios. Percent specific lysis was calculated as described previously. (C) KHYG-1 cells were transfected with Scsi or Zap-70si, and then cultured with pomalidomide (0.25 μM) for 72 h in the absence of IL-2. Viable cell number was determined, and cells were then incubated with calcein AM-labeled U266 target cells for 4 h at indicated effector/target (E/T) ratios. Percent specific lysis was calculated as described previously. (D) After transfection with Scsi or Zap-70si, cells were cultured with lenalidomide or pomalidomide for 72 h. Cell growth was assessed by MTT assay. (E) KHYG-1 cells were transfected with scrambled (Scsi) or CRBNsi. The transfectants were then cultured with pomalidomide (0.5 μM) for 24 h, and whole cell lysates were subjected to immunoblotting using indicated Abs. The arrow indicates CRBN expression. (F) Primary NK cells (#1, #2, #3, #4) were isolated from healthy volunteer's PBMCs, as described in Materials and Methods. NK cells were cultured with pomalidomide (0.5 μM) for 24 h, and whole cell lysates were subjected to immunoblotting using indicated Abs. […] Percent specific lysis was calculated as previously described.
structure (smiles),measurement,setting,value
Nc1cccc2c1C(=O)N(C1CCC(=O)NC1=O)C2=O (stereo not drawn) [pomalidomide],NK cell activity against U266 cells (percent specific lysis),U266 cells [1],upregulated NK activity
same,cytotoxicity against U266 cells (percent specific lysis),U266 cells [2],increased their cytotoxicity against U266 cells in a dose-dependent fashion
same,p-Zap-70 (immunoblotting),Zap-70,similarly enhanced p-Zap-70 in KHYG-1 cells
